Experimental data published in patent publication US10000469B2, “Heat shock protein 70 (hsp-70) receptor ligands” (Duke University, priority 2014, dated 2018).

How the values were obtained:
[1] = Blood workup after HS-72 treatment; format: in vivo; conditions: wild-type mice, compared to control mice
Experimental: HS-72 in vivo MTD and blood workup: The 5 cohorts consisted of 3 mice each given HS-72 BiW and administered IP in DMSO at 1, 5, 10, 20 and 30 mpk using female FVBs aged to 10 weeks. Body Mass was measured weekly and the mice were monitored for signs of toxicity as per MP1U standard protocol. For blood analysis, 4 mice were injected IP with HS-72 on day 1 and 4, with blood drawn on day 5. 4 mice receiving no treatment were used as controls.

GFP-Hsp70i = molecular target: T1, GFP-Hsp70i (Homo sapiens, UniProt P0DMV8); assay: FLECS elution of GFP-Hsp70i from γ-phosphate-linked ATP resin; format: binding; conditions: compared with HS-71
T1 construct: host or cells: HEK 293T
Experimental: FLECS Screen: A pEGFP-tagged Hsp70i was (plasmid 15215, Addgene, Cambridge, Mass.) used in the FLECS assay and was originally cloned according to [Zeng et al. (2004). Hsp70 dynamics in vivo: effect of heat shock and protein aggregation. Journal of cell science 117, 4991-5000]. ATP used in the assay was purchased from Sigma (St. Louis, Mo.) and a 200 mM stock was prepared with low salt buffer (150 mM NaCl, 25 mM Tris, pH 7.5, 60 mM MgCl2). The γ-phosphate ATP sepharose was synthesized as previously described and stored in low salt buffer [Haystead et al. (1993). Gamma-phosphate-linked ATP-sepharose for the affinity purification of protein kinases. Rapid purification to homogeneity of skeletal muscle mitogen-activated protein kinase kinase. European journal of biochemistry/FEBS 214, 459-467]. FuGENE 6 transfection reagent (Roche, Mannheim, Germany) was used for transfection of GFP-Hsp70i into HEK 293T cells, following the manufacturer protocol. The transfection ensued for 48 hours, upon which time the cells were harvested and lysed in cell lysis buffer (150 mM NaCl, 50 mM Tris, pH 7.5, 1% Triton X-100, 1 mM EDTA, 1 mM DTT, and 1 tablet Complete Mini protease inhibitor (Roche)). Cell lysates were stored at −80° C. until further use. Upon binding the resin lysates were washed 3× with high stringency wash buffer (1 M NaCl, 25 mM Tris, pH 7.5, 60 mM MgCl2, 1 mM DTT) and 3× with low stringency wash buffer (150 mM NaCl, 25 mM Tris, pH 7.5, 60 mM MgCl2, 1 mM DTT). […]
Assembly of a focused library, consisting of 3379 purine like compounds, was described previously [Carlson et al. (2013). Fluorescence Linked Enzyme Chemoproteomic Strategy for Discovery of a Potent and Selective DAPK1 and ZIPK Inhibitor. […] The lysates were eluted from the filter plate onto a catch plate by centrifugation and the fluorescence of the eluates was measured. […] Next, the presence of GFP-Hsp70i in the eluates from the 197 primary hits was determined by Western blot. […]

Hsc70 = molecular target: T2, Hsc70 (Homo sapiens, UniProt P11142); assay: Thermofluor assay, purified Hsc70; format: binding; conditions: ±ATP
T2 construct: His tag (cleaved yes); made in house
Experimental: Protein Purification: Plasmids were provided for human HSPA1A, HSPA8, and HSPA1A C306D. Plasmids were transformed in Rosetta competent cells and single colonies were picked from streaked LB/ampicillin/chloramphenicol plates. Cultures were grown at 37° C. for 4-6 hours, were cooled to 15° C. and expression was induced overnight with 200 uM isopropyl 1-thio-β-D-galactopyranoside. Cells were pelleted and resuspended in Ni-lysis buffer (50 mM Na2HPO4, 300 mM NaCl, 10 mM Imidazole, 0.05% Tween-20) supplemented with Complete Mini protease inhibitor tablets (Roche, Mannheim, Germany) and […], and then sonicated. The cells were again pelleted and the supernatant was incubated with complete His-Tag purification resin (Roche, Mannheim, Germany) for 5 hours at 4° C. The resin was washed with Ni-wash buffer (50 mM Na2HPO4, 300 mM NaCl, 20 mM Imidazole, 0.05% Tween-20) and eluted with Ni-elution buffer (50 mM Na2HPO4, 300 mM NaCl, 250 mM Imidazole, 0.05% Tween-20). […]
Thermofluor Assay: SYPRO orange (Molecular Probes, Eugene, Oreg.) was diluted 1:1000 in 25 mM HEPES, 5 mM MgCl2, 10 mM KCl (pH 7.5) and purified Hsp70i, Hsc70, Hsp70i C306, or Hsp90, was then added to a final dilution of 0.04 mg/ml. […] A melt curve protocol (25° C. to 90° C., increasing 0.5° C. and a plate reading every 30 seconds) was run on a CFX384 Touch™ Real-Time PCR Detection System (BioRad). […]

T2 sequence (P11142 whole entry): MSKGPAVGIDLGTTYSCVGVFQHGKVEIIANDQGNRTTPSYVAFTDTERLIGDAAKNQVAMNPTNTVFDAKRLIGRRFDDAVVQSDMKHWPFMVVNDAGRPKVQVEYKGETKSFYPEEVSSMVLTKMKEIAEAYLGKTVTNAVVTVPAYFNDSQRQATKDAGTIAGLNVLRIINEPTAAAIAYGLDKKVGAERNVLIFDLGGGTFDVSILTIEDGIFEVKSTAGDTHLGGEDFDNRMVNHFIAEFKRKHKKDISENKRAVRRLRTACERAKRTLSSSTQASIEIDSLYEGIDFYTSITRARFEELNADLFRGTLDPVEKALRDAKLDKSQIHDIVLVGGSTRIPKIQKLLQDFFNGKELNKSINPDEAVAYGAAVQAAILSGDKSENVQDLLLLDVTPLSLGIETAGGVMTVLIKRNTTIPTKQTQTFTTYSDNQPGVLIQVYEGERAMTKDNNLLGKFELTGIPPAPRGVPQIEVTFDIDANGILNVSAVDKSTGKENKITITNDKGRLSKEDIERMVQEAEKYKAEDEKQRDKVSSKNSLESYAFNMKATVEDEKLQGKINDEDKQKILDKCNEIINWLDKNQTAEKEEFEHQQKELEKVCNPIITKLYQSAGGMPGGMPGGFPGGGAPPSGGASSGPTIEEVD
T1 sequence (P0DMV8 whole entry): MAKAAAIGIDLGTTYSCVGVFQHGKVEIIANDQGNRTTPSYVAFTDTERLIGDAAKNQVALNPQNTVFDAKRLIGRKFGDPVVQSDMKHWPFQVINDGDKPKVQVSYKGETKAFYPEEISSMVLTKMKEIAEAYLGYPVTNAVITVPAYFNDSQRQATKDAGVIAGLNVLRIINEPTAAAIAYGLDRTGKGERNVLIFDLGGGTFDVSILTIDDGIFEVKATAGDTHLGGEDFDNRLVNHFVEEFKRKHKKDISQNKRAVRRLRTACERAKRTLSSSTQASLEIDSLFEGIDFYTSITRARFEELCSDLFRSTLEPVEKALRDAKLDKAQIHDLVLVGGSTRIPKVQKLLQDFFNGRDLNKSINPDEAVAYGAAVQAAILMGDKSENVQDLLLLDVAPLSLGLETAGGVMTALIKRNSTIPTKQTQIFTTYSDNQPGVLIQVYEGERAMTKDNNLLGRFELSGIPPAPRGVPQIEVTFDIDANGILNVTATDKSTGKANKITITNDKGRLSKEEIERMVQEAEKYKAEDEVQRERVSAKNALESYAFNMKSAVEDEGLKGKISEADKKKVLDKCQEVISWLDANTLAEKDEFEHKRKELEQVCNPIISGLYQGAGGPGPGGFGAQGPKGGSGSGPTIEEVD

## CCCn1c(NC(=O)[C@H]2CCCN(c3cnccn3)C2)nc2ccccc21 [HS-72, (S)—N-(1-propyl-1H-benzo[d]imidazol-2-yl)-1-(pyrazin-2-yl)piperidine-3-carboxamide]
[1]
  complete blood count: no effect on complete blood count
  kidney function: no effect on kidney function
  liver function: no effect on liver function
GFP-Hsp70i
  elution of GFP-Hsp70 from the ATP resin, S vs. R enantiomer: more effective
Hsc70
  effect on Tm of Hsc70: does not change
